# Laboratory results taken from publication PMC5218480 (PLoS ONE, 2017).
# System: MV-4-11 cells
# Experiment: Gene expression microarray analysis (Affymetrix PrimeView) and GSEA
# Format: cell-based, human
# Design: RFU PODN (11730768_x_at) / Fold change /veh PODN (11730768_x_at) / RFU LINC00158 (11744669_a_at) / Fold change /veh LINC00158 (11744669_a_at) / RFU DUSP10 (11751237_a_at) / Fold change /veh DUSP10 (11751237_a_at) / RFU ID3 (11757404_x_at) / Fold change /veh ID3 (11757404_x_at) / RFU PLEKHG5 (11737974_s_at) / Fold change /veh PLEKHG5 (11737974_s_at) / RFU LRRC4B (11730491_at) / Fold change /veh LRRC4B (11730491_at) / RFU GIMAP4 (11747438_a_at) / Fold change /veh GIMAP4 (11747438_a_at) / RFU KRT8 (11758183_x_at) / Fold change /veh KRT8 (11758183_x_at) / RFU CNN1 (11734310_a_at) / Fold change /veh CNN1 (11734310_a_at) / RFU VPS37D (11726825_at) / Fold change /veh VPS37D (11726825_at) / RFU C10orf10 (11716522_x_at) / Fold change /veh C10orf10 (11716522_x_at) / RFU KIR2DL2 /// KIR2DL4 /// KIR2DL5A /// KIR2DL5B /// KIR2DS1 /// KIR2DS2 /// KIR2DS3 /// KIR2DS4 /// KIR3DL3 /// KIR3DL3 /// KIR3DS1 (11738374_at) / Fold change /veh KIR2DL2 /// KIR2DL4 /// KIR2DL5A /// KIR2DL5B /// KIR2DS1 /// KIR2DS2 /// KIR2DS3 /// KIR2DS4 /// KIR3DL3 /// KIR3DL3 /// KIR3DS1 (11738374_at) / RFU C1QL1 (11718748_at) / Fold change /veh C1QL1 (11718748_at) / RFU TMPRSS4 (11747572_a_at) / Fold change /veh TMPRSS4 (11747572_a_at) / RFU HAMP (11756126_x_at) / Fold change /veh HAMP (11756126_x_at) / RFU RNFT2 (11725882_a_at) / Fold change /veh RNFT2 (11725882_a_at) / RFU NR4A2 (11747474_a_at) / Fold change /veh NR4A2 (11747474_a_at) / RFU ABCC12 (11746883_a_at) / Fold change /veh ABCC12 (11746883_a_at) / RFU TMEM136 (11760407_x_at) / Fold change /veh TMEM136 (11760407_x_at) / RFU CLDN22 /// WWC2 (11732394_at) / Fold change /veh CLDN22 /// WWC2 (11732394_at) / RFU HLA-DPB1 (11760878_x_at) / Fold change /veh HLA-DPB1 (11760878_x_at) / RFU SPINT1 (11716480_a_at) / Fold change /veh SPINT1 (11716480_a_at) / RFU GAP43 (11754022_s_at) / Fold change /veh GAP43 (11754022_s_at) / RFU A4GNT (11735810_at) / Fold change /veh A4GNT (11735810_at) / RFU PRB3 (11715151_x_at) / Fold change /veh PRB3 (11715151_x_at) / RFU TUBB4B (11761932_at) / Fold change /veh TUBB4B (11761932_at) / RFU CAPN14 (11732068_a_at) / Fold change /veh CAPN14 (11732068_a_at) / RFU TMCC2 (11721928_a_at) / Fold change /veh TMCC2 (11721928_a_at) / RFU IRGQ (11745062_a_at) / Fold change /veh IRGQ (11745062_a_at) / RFU FAM174B (11720279_a_at) / Fold change /veh FAM174B (11720279_a_at) / RFU TMPRSS4 (11748680_a_at) / Fold change /veh TMPRSS4 (11748680_a_at) / RFU FAM212B (11763350_a_at) / Fold change /veh FAM212B (11763350_a_at) / RFU PLEKHG5 (11743358_a_at) / Fold change /veh PLEKHG5 (11743358_a_at) / RFU ZSCAN30 (11745921_a_at) / Fold change /veh ZSCAN30 (11745921_a_at) / RFU CMKLR1 (11741424_a_at) / Fold change /veh CMKLR1 (11741424_a_at) / RFU LOC101060620 /// MAPK8IP1 (11723275_at) / Fold change /veh LOC101060620 /// MAPK8IP1 (11723275_at) / RFU SPTSSB (11747773_x_at) / Fold change /veh SPTSSB (11747773_x_at) / RFU PRSS12 (11739890_at) / Fold change /veh PRSS12 (11739890_at) / RFU BIN1 (11741810_x_at) / Fold change /veh BIN1 (11741810_x_at) / RFU WNT11 (11732464_a_at) / Fold change /veh WNT11 (11732464_a_at) / RFU C10orf10 (11716521_a_at) / Fold change /veh C10orf10 (11716521_a_at) / RFU C5orf56 (11738089_at) / Fold change /veh C5orf56 (11738089_at) / RFU CYB561 (11721691_x_at) / Fold change /veh CYB561 (11721691_x_at) / RFU ANKRD19P (11752326_a_at) / Fold change /veh ANKRD19P (11752326_a_at) / RFU OR2T12 /// OR2T33 /// OR2T8 (11738714_s_at) / Fold change /veh OR2T12 /// OR2T33 /// OR2T8 (11738714_s_at) / RFU VCAN (11748164_a_at) / Fold change /veh VCAN (11748164_a_at) / RFU JSRP1 (11732532_at) / Fold change /veh JSRP1 (11732532_at) / RFU KRTAP10-11 (11738290_x_at) / Fold change /veh KRTAP10-11 (11738290_x_at) / RFU MYO3A (11730013_a_at) / Fold change /veh MYO3A (11730013_a_at) / RFU EBF3 (11725865_a_at) / Fold change /veh EBF3 (11725865_a_at) / RFU CAMK2N1 (11719241_x_at) / Fold change /veh CAMK2N1 (11719241_x_at) / RFU C5orf56 (11738088_a_at) / Fold change /veh C5orf56 (11738088_a_at) / RFU OLFML3 (11715873_a_at) / Fold change /veh OLFML3 (11715873_a_at) / RFU LOC100653217 /// NTM (11731650_a_at) / Fold change /veh LOC100653217 /// NTM (11731650_a_at) / RFU MAPK11 (11762145_a_at) / Fold change /veh MAPK11 (11762145_a_at) / RFU FIZ1 (11724087_x_at) / Fold change /veh FIZ1 (11724087_x_at) / RFU OASL (11726364_x_at) / Fold change /veh OASL (11726364_x_at) / RFU SOX15 (11748057_x_at) / Fold change /veh SOX15 (11748057_x_at) / RFU CD79A (11719716_a_at) / Fold change /veh CD79A (11719716_a_at) / RFU HIST1H1D (11736915_at) / Fold change /veh HIST1H1D (11736915_at) / RFU CASKIN2 (11723855_a_at) / Fold change /veh CASKIN2 (11723855_a_at) / RFU LOC730098 (11760151_x_at) / Fold change /veh LOC730098 (11760151_x_at) / RFU OR4N2 (11742367_at) / Fold change /veh OR4N2 (11742367_at) / RFU PRRT2 (11749266_a_at) / Fold change /veh PRRT2 (11749266_a_at) / RFU SNX32 (11753110_a_at) / Fold change /veh SNX32 (11753110_a_at) / RFU CDHR5 (11726645_a_at) / Fold change /veh CDHR5 (11726645_a_at) / RFU RCAN1 (11760418_a_at) / Fold change /veh RCAN1 (11760418_a_at) / RFU FAM167A (11723789_a_at) / Fold change /veh FAM167A (11723789_a_at) / RFU FAM26E (11764081_at) / Fold change /veh FAM26E (11764081_at) / RFU ISYNA1 (11749810_s_at) / Fold change /veh ISYNA1 (11749810_s_at) / RFU ACY1 (11761880_at) / Fold change /veh ACY1 (11761880_at) / RFU 11764098_at / Fold change /veh 11764098_at / RFU SAMD14 (11745864_x_at) / Fold change /veh SAMD14 (11745864_x_at) / RFU NPB (11741838_a_at) / Fold change /veh NPB (11741838_a_at) / RFU TMPRSS6 (11731388_a_at) / Fold change /veh TMPRSS6 (11731388_a_at) / RFU KRTAP10-2 (11738614_at) / Fold change /veh KRTAP10-2 (11738614_at) / RFU ARHGAP8 /// PRR5-ARHGAP8 (11727945_x_at) / Fold change /veh ARHGAP8 /// PRR5-ARHGAP8 (11727945_x_at) / RFU KRTAP5-7 /// NADSYN1 (11734609_at) / Fold change /veh KRTAP5-7 /// NADSYN1 (11734609_at) / RFU RASL12 (11751679_a_at) / Fold change /veh RASL12 (11751679_a_at) / RFU CDKN2B (11736163_a_at) / Fold change /veh CDKN2B (11736163_a_at) / RFU PRF1 (11729649_at) / Fold change /veh PRF1 (11729649_at) / RFU, ZNF638 /// ZNF638-IT1 / Fold change vs veh, ZNF638 /// ZNF638-IT1 / RFU, PANK3 / Fold change vs veh, PANK3 / RFU, SH3YL1 / Fold change vs veh, SH3YL1 / RFU, ZEB2 / Fold change vs veh, ZEB2 / RFU, NRIP1 / Fold change vs veh, NRIP1 / RFU, PTTG1IP / Fold change vs veh, PTTG1IP / RFU, CAPN2 / Fold change vs veh, CAPN2 / RFU, MED14 / Fold change vs veh, MED14 / RFU, SNORA58 / Fold change vs veh, SNORA58 / RFU, C1orf63 / Fold change vs veh, C1orf63 / RFU, LRRFIP1 / Fold change vs veh, LRRFIP1 / RFU, NDUFAF7 / Fold change vs veh, NDUFAF7 / RFU, SLC12A2 / Fold change vs veh, SLC12A2 / RFU, IBTK / Fold change vs veh, IBTK / RFU, ESF1 / Fold change vs veh, ESF1 / Fold change vs veh, TMEM50B / RFU, TAOK1 / Fold change vs veh, TAOK1 / RFU, ACBD3 / Fold change vs veh, ACBD3 / RFU, TMA16 / Fold change vs veh, TMA16 / RFU, RWDD3 / Fold change vs veh, RWDD3 / RFU, BCAT1 / Fold change vs veh, BCAT1 / RFU, EDEM3 / Fold change vs veh, EDEM3 / RFU, TMEM33 / Fold change vs veh, TMEM33 / RFU, WDR75 / Fold change vs veh, WDR75 / RFU, AHCTF1 / Fold change vs veh, AHCTF1 / RFU, TFRC / Fold change vs veh, TFRC / RFU, ZDHHC17 / Fold change vs veh, ZDHHC17 / RFU, NOM1 / Fold change vs veh, NOM1 / RFU, ARL8B / Fold change vs veh, ARL8B / RFU, ZBTB11 / Fold change vs veh, ZBTB11 / RFU, TAMM41 / Fold change vs veh, TAMM41 / RFU, KIAA1704 /// LOC100996395 / Fold change vs veh, KIAA1704 /// LOC100996395 / RFU, ING1 / Fold change vs veh, ING1 / RFU, TRMT61B / Fold change vs veh, TRMT61B / RFU, FUBP3 / Fold change vs veh, FUBP3 / RFU, TP53 / Fold change vs veh, TP53 / RFU, TNKS2 / Fold change vs veh, TNKS2 / RFU, ZFP14 / Fold change vs veh, ZFP14 / RFU, ACTR2 / Fold change vs veh, ACTR2 / RFU, PPP3R1 / Fold change vs veh, PPP3R1 / RFU, PIK3R1 / Fold change vs veh, PIK3R1 / RFU, HNRNPA1 / Fold change vs veh, HNRNPA1 / RFU, RNF170 / Fold change vs veh, RNF170 / RFU, ZNF28 / Fold change vs veh, ZNF28 / RFU, RNGTT / Fold change vs veh, RNGTT / RFU, OGT / Fold change vs veh, OGT / RFU, BRD1 / Fold change vs veh, BRD1 / RFU, MARS / Fold change vs veh, MARS / RFU, ZNF655 / Fold change vs veh, ZNF655 / RFU, FAHD1 / Fold change vs veh, FAHD1 / RFU, BDP1 / Fold change vs veh, BDP1 / RFU, LRRCC1 / Fold change vs veh, LRRCC1 / RFU, ARID1A / Fold change vs veh, ARID1A / RFU, ZNF146 / Fold change vs veh, ZNF146 / RFU, ZNF330 / Fold change vs veh, ZNF330 / RFU, GPN3 / Fold change vs veh, GPN3 / RFU, C9orf123 / Fold change vs veh, C9orf123 / RFU, N4BP2L2 / Fold change vs veh, N4BP2L2 / RFU, ARFIP1 / Fold change vs veh, ARFIP1 / RFU, FAM179B / Fold change vs veh, FAM179B / RFU, BCL10 / Fold change vs veh, BCL10 / RFU, UHRF1BP1L / Fold change vs veh, UHRF1BP1L / RFU, BET1 / Fold change vs veh, BET1 / RFU, CNOT2 / Fold change vs veh, CNOT2 / RFU, ZNF268 / Fold change vs veh, ZNF268 / Fold change vs veh, ZNF507 / RFU, DGCR2 / Fold change vs veh, DGCR2 / RFU, WDSUB1 / Fold change vs veh, WDSUB1 / Fold change vs veh, HSP90B1 /// MIR3652 / RFU, ADSS / Fold change vs veh, ADSS / RFU, GK / Fold change vs veh, GK / RFU, ZNF148 / Fold change vs veh, ZNF148 / RFU, TAF9 / Fold change vs veh, TAF9 / RFU, SLC1A5 / Fold change vs veh, SLC1A5 / RFU, SLMO2 / Fold change vs veh, SLMO2 / RFU, ABCC4 / Fold change vs veh, ABCC4 / RFU, LOC101060439 /// RAP1B / Fold change vs veh, LOC101060439 /// RAP1B / RFU, RFX7 / Fold change vs veh, RFX7 / RFU, GTPBP10 / Fold change vs veh, GTPBP10 / RFU, CNEP1R1 / Fold change vs veh, CNEP1R1 / RFU, BIVM-ERCC5 /// ERCC5 / Fold change vs veh, BIVM-ERCC5 /// ERCC5 / RFU, ILF3 / Fold change vs veh, ILF3 / RFU 11762660_at / Fold change /veh 11762660_at / RFU VCAN (11757783_s_at) / Fold change /veh VCAN (11757783_s_at) / RFU DDX43 (11728927_at) / Fold change /veh DDX43 (11728927_at) / RFU KRT8 (11758188_x_at) / Fold change /veh KRT8 (11758188_x_at) / RFU NKD1 (11759106_at) / Fold change /veh NKD1 (11759106_at) / RFU SRD5A1 (11742802_a_at) / Fold change /veh SRD5A1 (11742802_a_at) / RFU TPSAB1 /// TPSB2 (11721975_s_at) / Fold change /veh TPSAB1 /// TPSB2 (11721975_s_at) / RFU GSTM3 (11746129_a_at) / Fold change /veh GSTM3 (11746129_a_at) / RFU IL23R (11737362_x_at) / Fold change /veh IL23R (11737362_x_at) / RFU TMEM51 (11727254_a_at) / Fold change /veh TMEM51 (11727254_a_at) / RFU PIWIL2 (11732686_x_at) / Fold change /veh PIWIL2 (11732686_x_at) / RFU ORM1 (11744905_x_at) / Fold change /veh ORM1 (11744905_x_at) / RFU CCDC152 (11743942_at) / Fold change /veh CCDC152 (11743942_at) / RFU ECM1 (11717891_a_at) / Fold change /veh ECM1 (11717891_a_at) / RFU IL23R (11748794_a_at) / Fold change /veh IL23R (11748794_a_at) / RFU TNFAIP8L3 (11732012_x_at) / Fold change /veh TNFAIP8L3 (11732012_x_at) / RFU MBOAT4 (11741988_at) / Fold change /veh MBOAT4 (11741988_at) / RFU 11764193_at / Fold change /veh 11764193_at / RFU TMEM53 (11763286_at) / Fold change /veh TMEM53 (11763286_at) / RFU MAGEB2 (11727129_at) / Fold change /veh MAGEB2 (11727129_at) / RFU TMEM200A (11744735_a_at) / Fold change /veh TMEM200A (11744735_a_at) / RFU CCDC152 (11751479_a_at) / Fold change /veh CCDC152 (11751479_a_at) / RFU FAM211A (11726209_a_at) / Fold change /veh FAM211A (11726209_a_at) / RFU RGS16 (11746705_a_at) / Fold change /veh RGS16 (11746705_a_at) / RFU VCAN (11755009_s_at) / Fold change /veh VCAN (11755009_s_at) / RFU RHOB (11743442_s_at) / Fold change /veh RHOB (11743442_s_at) / RFU RGS16 (11720943_a_at) / Fold change /veh RGS16 (11720943_a_at) / RFU RGS16 (11720944_at) / Fold change /veh RGS16 (11720944_at) / RFU, VPS4B / Fold change vs veh, VPS4B / RFU, CREB1 / Fold change vs veh, CREB1 / RFU, DNAJC13 / Fold change vs veh, DNAJC13 / RFU, GNAQ / Fold change vs veh, GNAQ / RFU, CDK5R1 / Fold change vs veh, CDK5R1 / RFU, ZRANB3 / Fold change vs veh, ZRANB3 / RFU, CUL4A / Fold change vs veh, CUL4A / RFU, CCNY / Fold change vs veh, CCNY / RFU, UFL1 / Fold change vs veh, UFL1 / RFU, COG3 / Fold change vs veh, COG3 / RFU, DIAPH2 / Fold change vs veh, DIAPH2 / RFU, SKA2 / Fold change vs veh, SKA2 / RFU, AFF3 / Fold change vs veh, AFF3 / RFU, LMF1 / Fold change vs veh, LMF1 / RFU, IPO11 / Fold change vs veh, IPO11 / RFU, DFFB / Fold change vs veh, DFFB / RFU, FOXP1 / Fold change vs veh, FOXP1 / RFU, CARD8 / Fold change vs veh, CARD8 / RFU, STRN3 / Fold change vs veh, STRN3 / RFU, ADK / Fold change vs veh, ADK / RFU, RASSF2 / Fold change vs veh, RASSF2 / RFU, WIPF1 / Fold change vs veh, WIPF1 / RFU, LARP1B / Fold change vs veh, LARP1B / RFU, RASA1 / Fold change vs veh, RASA1 / RFU, RB1 / Fold change vs veh, RB1 / RFU, PPFIA1 / Fold change vs veh, PPFIA1 / RFU, MAT2A / Fold change vs veh, MAT2A / RFU, CCT5 / Fold change vs veh, CCT5 / RFU, WDR92 / Fold change vs veh, WDR92 / RFU, CUX1 / Fold change vs veh, CUX1 / RFU, TTC7A / Fold change vs veh, TTC7A / RFU, TMEM135 / Fold change vs veh, TMEM135 / RFU, DEPTOR / Fold change vs veh, DEPTOR / RFU, CPM / Fold change vs veh, CPM / RFU, DNAJB6 / Fold change vs veh, DNAJB6 / RFU, CACNA2D3 / Fold change vs veh, CACNA2D3 / RFU, DTX4 / Fold change vs veh, DTX4 / RFU, TFCP2 / Fold change vs veh, TFCP2 / RFU, GMCL1 /// GMCL1P1 / Fold change vs veh, GMCL1 /// GMCL1P1 / RFU, AEBP2 / Fold change vs veh, AEBP2 / RFU, SNHG1 /// SNORD22 /// SNORD25 /// SNORD26 /// SNORD27 /// SNORD28 /// SNORD29 /// SNORD31 / Fold change vs veh, SNHG1 /// SNORD22 /// SNORD25 /// SNORD26 /// SNORD27 /// SNORD28 /// SNORD29 /// SNORD31 / Fold change (Aza/veh), C12orf56 (ProbeSet 11735607_a_at) / Fold change (ACY-1035/veh), C12orf56 (ProbeSet 11735607_a_at) / Fold change (Aza/veh), FGFR1OP (ProbeSet 11751329_s_at) / Fold change (ACY-1035/veh), FGFR1OP (ProbeSet 11751329_s_at) / Fold change (Aza/veh), VPS36 (ProbeSet 11739960_a_at) / Fold change (ACY-1035/veh), VPS36 (ProbeSet 11739960_a_at) / RFU SYPL1 (11715823_x_at) / Fold change /veh SYPL1 (11715823_x_at) / RFU IGFBP7 (11715501_s_at) / Fold change /veh IGFBP7 (11715501_s_at) / RFU REEP3 (11722064_at) / Fold change /veh REEP3 (11722064_at) / RFU IGLL1 (11728026_x_at) / Fold change /veh IGLL1 (11728026_x_at): dose or concentration left out as unconfirmed
# Details: MV-4-11 cells, 48 hours
compound,measurement,value
Nc1ccc(-c2cccs2)cc1NC(=O)c1ccc2c(c1)cc(C1CC1)n2CCN1CCOCC1 [ACY-1035],Fold change /veh KIR2DL2 /// KIR2DL4 /// KIR2DL5A /// KIR2DL5B /// KIR2DS1 /// KIR2DS2 /// KIR2DS3 /// KIR2DS4 /// KIR3DL3 /// KIR3DL3 /// KIR3DS1 (11738374_at),0.96
